Results published in patent publication US20050154230A1, “Urea derivatives” (Bayer HealthCare AG, priority 2001, published 2005).
Where two headings read alike, the source gives them in different places.

Columns and labels:
[1] = biological target: T1, human VR1 (Homo sapiens, UniProt Q8NER1); assay: Capsaicin-induced Ca2+ influx in the human VR1-transfected CHO cell line (Assay 1); type: cell-based
T1 construct: expressed in transfected cells
Procedure, shortened: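 CHO cells expressing human VR1 with an aequorin reporter were treated with compound or vehicle for 20 min at 25° C. Capsaicin-induced Ca^2+ influx was then measured on an FDSS-3000. Integral R was calculated and compared with controls.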

[2] = human VR1-CHOluc9aeq cells, 10 nM capsaicin, compound purity about 40 to 90%, read-out: Activity grade
[3] = human VR1-CHOluc9aeq cells, 10 nM capsaicin, compound purity about 40 to 90%, read-out: hVR1 class

T1 sequence (Q8NER1 whole entry): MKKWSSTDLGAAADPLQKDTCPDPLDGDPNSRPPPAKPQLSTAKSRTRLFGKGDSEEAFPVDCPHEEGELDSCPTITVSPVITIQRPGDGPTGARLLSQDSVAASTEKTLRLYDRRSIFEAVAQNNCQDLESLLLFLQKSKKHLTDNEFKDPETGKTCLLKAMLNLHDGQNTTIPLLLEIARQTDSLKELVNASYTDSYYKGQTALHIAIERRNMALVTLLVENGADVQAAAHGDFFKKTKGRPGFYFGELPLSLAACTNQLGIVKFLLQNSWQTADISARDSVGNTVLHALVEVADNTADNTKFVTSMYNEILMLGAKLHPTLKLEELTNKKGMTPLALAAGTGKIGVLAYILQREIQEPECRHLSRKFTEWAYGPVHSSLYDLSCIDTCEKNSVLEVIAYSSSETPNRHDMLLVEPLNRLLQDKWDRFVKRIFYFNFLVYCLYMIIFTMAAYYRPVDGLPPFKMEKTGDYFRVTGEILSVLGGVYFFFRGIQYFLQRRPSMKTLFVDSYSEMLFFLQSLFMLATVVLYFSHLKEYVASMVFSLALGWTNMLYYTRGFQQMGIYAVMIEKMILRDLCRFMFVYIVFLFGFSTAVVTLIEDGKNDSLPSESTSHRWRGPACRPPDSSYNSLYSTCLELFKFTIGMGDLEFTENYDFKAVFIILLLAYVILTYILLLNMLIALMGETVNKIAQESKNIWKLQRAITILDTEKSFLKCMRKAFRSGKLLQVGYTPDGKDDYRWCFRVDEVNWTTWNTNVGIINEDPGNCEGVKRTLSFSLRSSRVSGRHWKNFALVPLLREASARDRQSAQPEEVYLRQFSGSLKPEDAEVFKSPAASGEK

melting point | IC50 [1, 2] | IC50 [1, 3] | Compound | IC50 [1]
153.4 °C | < 100 nM |  | COc1cc(CNC(=O)Nc2cccc(-c3ccc(Cl)cc3)c2)ccc1O [Example 2-1, N-(4′-chloro-1,1′-biphenyl-3-yl)-N′-(4-hydroxy-3 methoxybenzyl)urea] | 
180 °C |  | 500 to 1000 nM | COc1cc(CNC(=O)Nc2ccccc2[N+](=O)[O-])ccc1O [Example 58] | 
166 °C |  | < 100 nM | O=C(Nc1cccc(-c2ccc(Cl)cc2Cl)c1)Nc1ccccc1CCO [Example 223] | 
203 °C |  | 100 to 500 nM | COc1cc(CNC(=O)Nc2ccc(Br)cc2)ccc1O [Example 63] | 
175 to 177 °C |  | < 100 nM | O=C(Nc1ccc(Cl)c(C(F)(F)F)c1)Nc1ccccc1CCO [Example 98] | 
188 to 190 °C | < 100 nM |  | O=C(Nc1ccc(Cl)c(Cl)c1)Nc1ccccc1CCO [Example 1-2, N-(3,4-dichlorophenyl)-N′-[2-(2-hydroxyethyl)phenyl]urea] | 
211 °C |  | 500 to 1000 nM | COc1cc(CNC(=O)Nc2c(C)cccc2C)ccc1O [Example 60] | 
209 to 211 °C |  | 500 to 1000 nM | O=C(Nc1cccc(-c2ccc(Cl)cc2)c1)Nc1ccc(Cl)cc1CCO [Example 246] | 
210 °C |  | < 100 nM | COc1cc(CNC(=O)Nc2ccc(Cl)cc2)ccc1O [Example 83] | 
185 to 187 °C |  | 500 to 1000 nM | O=C(Nc1ccc(Cl)cc1)Nc1ccccc1CCO [Example 106] | 
163 °C |  | < 100 nM | COc1cccc(-c2cccc(NC(=O)Nc3ccccc3CCO)c2)c1 [Example 242] | 
160 to 162 °C |  | 500 to 1000 nM | O=C(NCc1cccc(F)c1)Nc1ccccc1CCO [Example 120] | 

The remaining lines, values behind:

Compound | melting point | IC50 [1, 2] | IC50 [1, 3] | IC50 [1]
COc1cc(CNC(=O)Nc2ccc(C(C)C)cc2)ccc1O [Example 1-1, N-(4-hydroxy-3-methoxybenzyl)-N′-(4-isopropylphenyl)urea] | 156 °C |  |  | < 100 nM
O=C(NCc1ccccc1)Nc1ccccc1CCO [Example 153] | 149 to 150 °C |  | 500 to 1000 nM | 
CCn1c2ccccc2c2cc(NC(=O)Nc3ccccc3CCO)ccc21 [Example 172] | 224 to 226 °C |  | < 100 nM | 
O=C(Nc1cccc(-c2cc(Cl)cc(Cl)c2)c1)Nc1ccccc1CCO [Example 217] | 184 °C |  | < 100 nM | 
O=C(Nc1cc(F)cc(F)c1)Nc1ccccc1CCO [Example 180] | 188 to 189 °C |  | 100 to 500 nM | 
O=C(Nc1ccc([N+](=O)[O-])c(C(F)(F)F)c1)Nc1ccccc1CCO [Example 187] | 149 to 150 °C |  | 100 to 500 nM | 
O=C(Nc1cccc(-c2ccc(F)cc2F)c1)Nc1ccccc1CCO [Example 199] | 169 °C |  | < 100 nM | 
O=C(Nc1cc(C(F)(F)F)ccc1F)Nc1ccccc1CCO [Example 189] | 150 to 152 °C |  | 500 to 1000 nM | 
O=C(Nc1cccc(-c2cccc([N+](=O)[O-])c2)c1)Nc1ccccc1CCO [Example 234] | 188 °C |  | < 100 nM | 
CCOc1ccccc1NC(=O)Nc1ccccc1CCO [Example 146] | 112 to 114 °C (dec.) |  | 500 to 1000 nM | 
O=C(Nc1ccc2c(c1)OCO2)Nc1ccccc1CCO [Example 220] | 183 to 184 °C |  | 500 to 1000 nM | 
O=C(Nc1cccc(-c2ccccc2C(F)(F)F)c1)Nc1ccccc1CCO [Example 241] | 153 °C |  | < 100 nM | 
O=C(Nc1cccc(OCc2ccccc2)c1)Nc1ccccc1CCO [Example 174] | 146 to 148 °C |  | < 100 nM | 
O=C(Nc1cccc(-c2cccc3ccccc23)c1)Nc1ccccc1CCO [Example 214] | 113 °C |  | < 100 nM | 
O=C(Nc1cccc(-c2ccc(OCc3ccccc3)c(F)c2)c1)Nc1ccccc1CCO [Example 236] | 181 to 182 °C |  | < 100 nM | 
O=C(Nc1cccc(Oc2ccccc2)c1)Nc1ccccc1CCO [Example 171] | 145 to 146 °C |  | < 100 nM | 
O=C(Nc1cc(F)c(F)cc1F)Nc1ccccc1CCO [Example 183] | 172 to 174 °C |  | 500 to 1000 nM | 
O=C(Nc1cccc(-c2ccc(Cl)c(Cl)c2)c1)Nc1ccccc1CCO [Example 216] | 180 °C |  | < 100 nM | 
O=C(Nc1cccc(C(F)(F)F)c1)Nc1ccccc1CCO [Example 107] | 173 to 175 °C |  | 100 to 500 nM | 
O=C(Nc1cccc(-c2ccccc2Cl)c1)Nc1cc(C(F)(F)F)ccc1CCO [Example 233] | 185 to 187 °C |  | 100 to 500 nM | 
